The text below walks through data of ChEMBL document CHEMBL4041549, “Tetrahydroisoquinoline-7-carboxamide Derivatives as New Selective Discoidin Domain Receptor 1 (DDR1) Inhibitors” (ACS Med Chem Lett, 2017).

In assay [1] the target is T1, Discoidin domain-containing receptor 2 (Homo sapiens, UniProt Q16832).
T1 sequence (Q16832 whole entry): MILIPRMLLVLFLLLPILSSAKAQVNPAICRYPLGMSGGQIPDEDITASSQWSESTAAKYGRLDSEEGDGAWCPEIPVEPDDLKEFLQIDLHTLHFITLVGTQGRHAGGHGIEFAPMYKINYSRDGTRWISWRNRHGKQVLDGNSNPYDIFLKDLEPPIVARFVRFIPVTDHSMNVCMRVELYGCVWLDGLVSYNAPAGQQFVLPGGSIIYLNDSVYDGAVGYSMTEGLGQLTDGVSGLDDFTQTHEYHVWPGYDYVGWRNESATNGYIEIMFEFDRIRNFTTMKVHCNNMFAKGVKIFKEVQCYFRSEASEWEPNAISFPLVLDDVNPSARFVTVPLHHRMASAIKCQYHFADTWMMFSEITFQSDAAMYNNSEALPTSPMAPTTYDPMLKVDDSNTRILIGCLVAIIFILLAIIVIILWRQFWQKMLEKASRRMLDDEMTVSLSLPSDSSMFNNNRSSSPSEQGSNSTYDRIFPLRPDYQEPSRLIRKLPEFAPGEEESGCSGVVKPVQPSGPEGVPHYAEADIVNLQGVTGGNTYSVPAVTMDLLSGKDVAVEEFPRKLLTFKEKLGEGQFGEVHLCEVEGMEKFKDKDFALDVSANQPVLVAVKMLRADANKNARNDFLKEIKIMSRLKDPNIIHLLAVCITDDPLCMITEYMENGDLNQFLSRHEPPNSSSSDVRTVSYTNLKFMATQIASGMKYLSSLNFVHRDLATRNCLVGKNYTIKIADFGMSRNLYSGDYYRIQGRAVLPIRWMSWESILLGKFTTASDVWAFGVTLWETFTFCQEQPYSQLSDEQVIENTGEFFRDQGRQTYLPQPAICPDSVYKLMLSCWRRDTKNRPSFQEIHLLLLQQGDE
Description: Inhibition of recombinant human GST-tagged DDR2 cytoplasmic domain expressed in baculovirus expression system using Fluorescein-Poly GAT as substrate measured after 1 hr by TR-FRET assay. A general note: TR-FRET usually uses a lanthanide donor and a delayed reading to cut background.

In assay [2] the target is Bcr/Abl fusion protein (Homo sapiens, UniProt P00519). Description: Inhibition of recombinant human full length His-tagged Bcr-Abl fusion protein cytoplasmic domain expressed in baculovirus expression system using tyrosine-2 as substrate measured after 1 hr by FRET-based Z'-Lyte assay.
Bcr/Abl fusion protein, sequence (P00519 whole entry, the tested form may be a part): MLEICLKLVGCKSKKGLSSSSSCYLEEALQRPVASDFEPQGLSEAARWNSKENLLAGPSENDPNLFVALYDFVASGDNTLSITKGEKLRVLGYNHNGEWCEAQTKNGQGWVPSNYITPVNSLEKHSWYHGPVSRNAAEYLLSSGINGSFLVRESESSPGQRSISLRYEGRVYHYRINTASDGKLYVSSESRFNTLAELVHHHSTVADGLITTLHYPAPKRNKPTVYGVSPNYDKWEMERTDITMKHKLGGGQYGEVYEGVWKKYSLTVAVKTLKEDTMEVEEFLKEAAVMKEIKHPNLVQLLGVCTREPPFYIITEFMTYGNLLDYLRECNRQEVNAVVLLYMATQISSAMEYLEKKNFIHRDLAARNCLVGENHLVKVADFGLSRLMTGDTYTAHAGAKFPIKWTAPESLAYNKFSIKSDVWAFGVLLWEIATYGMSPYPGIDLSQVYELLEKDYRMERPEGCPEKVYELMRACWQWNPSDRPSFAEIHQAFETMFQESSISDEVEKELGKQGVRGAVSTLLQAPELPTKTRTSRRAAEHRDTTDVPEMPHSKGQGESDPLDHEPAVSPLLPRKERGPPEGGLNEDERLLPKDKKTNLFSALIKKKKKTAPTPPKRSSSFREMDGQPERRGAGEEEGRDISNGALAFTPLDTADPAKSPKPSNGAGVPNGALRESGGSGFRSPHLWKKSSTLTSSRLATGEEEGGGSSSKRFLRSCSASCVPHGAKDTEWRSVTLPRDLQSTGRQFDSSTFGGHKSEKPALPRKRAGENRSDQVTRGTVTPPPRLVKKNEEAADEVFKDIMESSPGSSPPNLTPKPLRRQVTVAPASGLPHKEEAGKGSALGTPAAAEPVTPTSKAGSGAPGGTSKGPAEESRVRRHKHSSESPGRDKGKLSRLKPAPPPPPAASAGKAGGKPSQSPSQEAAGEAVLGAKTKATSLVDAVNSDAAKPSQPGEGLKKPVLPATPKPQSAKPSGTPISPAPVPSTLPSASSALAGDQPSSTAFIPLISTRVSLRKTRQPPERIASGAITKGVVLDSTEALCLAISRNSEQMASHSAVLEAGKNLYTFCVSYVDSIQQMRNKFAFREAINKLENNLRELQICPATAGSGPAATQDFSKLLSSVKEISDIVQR
Bcr/Abl fusion protein, sequence (P11274 whole entry, further chain, the tested form may be a part): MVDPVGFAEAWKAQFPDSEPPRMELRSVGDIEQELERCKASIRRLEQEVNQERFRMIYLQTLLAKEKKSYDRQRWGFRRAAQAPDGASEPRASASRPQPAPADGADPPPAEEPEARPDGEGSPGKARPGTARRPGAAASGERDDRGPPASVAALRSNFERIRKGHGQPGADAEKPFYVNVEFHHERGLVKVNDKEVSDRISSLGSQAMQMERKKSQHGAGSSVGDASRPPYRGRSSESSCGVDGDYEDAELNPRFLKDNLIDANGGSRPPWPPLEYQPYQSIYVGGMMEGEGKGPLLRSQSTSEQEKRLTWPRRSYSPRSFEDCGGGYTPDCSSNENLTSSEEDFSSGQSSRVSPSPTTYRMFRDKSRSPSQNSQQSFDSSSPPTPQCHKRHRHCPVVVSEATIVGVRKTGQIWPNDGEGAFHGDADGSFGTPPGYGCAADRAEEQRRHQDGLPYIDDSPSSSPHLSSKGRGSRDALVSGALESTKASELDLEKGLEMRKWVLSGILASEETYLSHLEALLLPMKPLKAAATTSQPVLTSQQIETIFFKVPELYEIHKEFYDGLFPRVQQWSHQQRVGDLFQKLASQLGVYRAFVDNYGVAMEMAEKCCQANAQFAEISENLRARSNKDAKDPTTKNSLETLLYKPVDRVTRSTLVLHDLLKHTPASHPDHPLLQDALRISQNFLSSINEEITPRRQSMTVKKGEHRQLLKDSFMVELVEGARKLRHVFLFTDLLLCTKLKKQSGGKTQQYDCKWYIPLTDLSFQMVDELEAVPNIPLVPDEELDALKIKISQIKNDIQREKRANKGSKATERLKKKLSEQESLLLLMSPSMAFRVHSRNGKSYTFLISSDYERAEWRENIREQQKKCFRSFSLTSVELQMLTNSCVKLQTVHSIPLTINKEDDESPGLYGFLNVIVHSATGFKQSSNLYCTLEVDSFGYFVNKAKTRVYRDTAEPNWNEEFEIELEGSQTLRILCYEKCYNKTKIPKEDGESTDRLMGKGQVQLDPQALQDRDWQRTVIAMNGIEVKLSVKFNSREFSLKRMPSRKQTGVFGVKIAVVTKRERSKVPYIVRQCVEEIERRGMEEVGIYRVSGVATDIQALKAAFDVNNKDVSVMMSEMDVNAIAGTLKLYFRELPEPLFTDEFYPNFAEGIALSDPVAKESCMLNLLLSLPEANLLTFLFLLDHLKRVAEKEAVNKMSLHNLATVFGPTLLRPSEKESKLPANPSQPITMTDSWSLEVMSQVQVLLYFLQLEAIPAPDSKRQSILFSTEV
The target of assay [3] is T2, Epithelial discoidin domain-containing receptor 1 (Homo sapiens, UniProt Q08345). Description: Inhibition of recombinant human GST-tagged DDR1 catalytic domain expressed in baculovirus expression system using Fluorescein-Poly GAT as substrate measured after 1 hr by TR-FRET assay.
T2 sequence (Q08345 whole entry, the tested form may be a part): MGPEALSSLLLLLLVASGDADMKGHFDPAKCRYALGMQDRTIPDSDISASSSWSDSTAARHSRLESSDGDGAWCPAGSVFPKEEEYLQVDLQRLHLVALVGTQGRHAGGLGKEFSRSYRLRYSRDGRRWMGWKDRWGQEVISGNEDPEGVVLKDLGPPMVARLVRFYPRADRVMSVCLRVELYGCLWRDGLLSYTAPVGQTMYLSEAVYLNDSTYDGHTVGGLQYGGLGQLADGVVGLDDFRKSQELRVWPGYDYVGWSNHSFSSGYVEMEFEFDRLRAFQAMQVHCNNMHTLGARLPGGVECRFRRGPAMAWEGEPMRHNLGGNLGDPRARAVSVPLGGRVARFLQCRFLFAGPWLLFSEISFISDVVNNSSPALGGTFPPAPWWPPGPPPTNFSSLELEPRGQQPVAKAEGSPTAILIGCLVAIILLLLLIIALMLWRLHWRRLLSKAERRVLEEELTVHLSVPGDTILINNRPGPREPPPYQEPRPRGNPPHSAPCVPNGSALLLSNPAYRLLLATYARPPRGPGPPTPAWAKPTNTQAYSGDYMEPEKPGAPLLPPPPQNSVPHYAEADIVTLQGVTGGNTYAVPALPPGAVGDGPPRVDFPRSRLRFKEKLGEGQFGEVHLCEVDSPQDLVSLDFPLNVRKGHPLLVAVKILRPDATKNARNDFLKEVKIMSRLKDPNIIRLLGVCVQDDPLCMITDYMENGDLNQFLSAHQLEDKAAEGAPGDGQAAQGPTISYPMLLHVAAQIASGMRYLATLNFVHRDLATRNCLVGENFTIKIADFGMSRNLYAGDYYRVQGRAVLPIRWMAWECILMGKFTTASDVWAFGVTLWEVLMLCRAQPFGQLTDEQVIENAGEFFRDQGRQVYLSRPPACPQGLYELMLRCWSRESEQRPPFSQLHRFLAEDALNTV
In assay [4] the target is Mast/stem cell growth factor receptor Kit (Homo sapiens, UniProt P10721). Description: Inhibition of recombinant human His-tagged c-kit cytoplasmic domain (544 to 976 residues) expressed in baculovirus expression system using […] as substrate measured after 1 hr by FRET-based Z'-Lyte assay.
Mast/stem cell growth factor receptor Kit, sequence (P10721 whole entry, the tested form may be a part): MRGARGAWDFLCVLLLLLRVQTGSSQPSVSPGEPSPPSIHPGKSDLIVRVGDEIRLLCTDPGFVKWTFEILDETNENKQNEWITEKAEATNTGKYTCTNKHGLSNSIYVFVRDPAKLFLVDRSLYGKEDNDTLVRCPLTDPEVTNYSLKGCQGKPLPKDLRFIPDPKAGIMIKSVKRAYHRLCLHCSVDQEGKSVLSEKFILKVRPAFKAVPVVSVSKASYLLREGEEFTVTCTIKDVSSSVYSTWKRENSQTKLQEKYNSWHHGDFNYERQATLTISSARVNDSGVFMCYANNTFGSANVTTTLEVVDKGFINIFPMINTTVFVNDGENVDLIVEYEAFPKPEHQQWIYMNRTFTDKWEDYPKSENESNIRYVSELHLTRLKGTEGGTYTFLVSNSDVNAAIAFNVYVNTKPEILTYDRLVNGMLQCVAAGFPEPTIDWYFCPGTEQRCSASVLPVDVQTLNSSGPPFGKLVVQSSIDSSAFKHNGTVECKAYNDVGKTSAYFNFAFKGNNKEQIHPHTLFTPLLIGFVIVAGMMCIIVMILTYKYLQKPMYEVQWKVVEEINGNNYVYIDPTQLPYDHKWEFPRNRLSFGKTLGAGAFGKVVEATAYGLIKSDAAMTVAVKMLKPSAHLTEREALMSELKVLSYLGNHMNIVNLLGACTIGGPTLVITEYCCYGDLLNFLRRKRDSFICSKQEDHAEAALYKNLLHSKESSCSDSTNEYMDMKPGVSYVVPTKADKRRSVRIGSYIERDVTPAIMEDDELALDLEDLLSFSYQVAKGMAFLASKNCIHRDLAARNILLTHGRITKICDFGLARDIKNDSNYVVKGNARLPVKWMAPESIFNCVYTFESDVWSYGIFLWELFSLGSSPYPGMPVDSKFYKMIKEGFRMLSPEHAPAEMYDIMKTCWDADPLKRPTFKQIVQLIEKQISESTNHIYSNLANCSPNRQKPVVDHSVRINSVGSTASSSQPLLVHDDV
Assay [5] deals with T2, Epithelial discoidin domain-containing receptor 1. The settings on record: 1 uM.
Assay [6] deals with Peritoneal macrophage. The assay can be described thus: Anti-inflammatory activity in C57BL/6 mouse primary peritoneal macrophages assessed as inhibition of LPS-induced TNF-alpha production by ELISA method. Type of assay: functional, cell-based. (ELISA stands for enzyme-linked immunosorbent assay.)
Assay [7] deals with T2, Epithelial discoidin domain-containing receptor 1. Description: Binding affinity to human DNA-tagged DDR1 expressed in bacterial expression system measured after 1 hr by quantitative PCR analysis.
In assay [8] the test system is Mus musculus. Description: Anti-inflammatory activity in LPS-induced C57BL/6 mouse acute lung injury model assessed as reduction in lung wet/dry ratio at 20 to 40 mg/kg, po bid pretreated for 7 days followed by LPS challenge measured after 6 hrs. Type of assay: functional, organism-based.
For assay [9], the system named is Mus musculus. The assay can be described thus: Anti-inflammatory activity in LPS-induced C57BL/6 mouse acute lung injury model assessed as reduction in pathological changes at 20 to 40 mg/kg, po bid pretreated for 7 days followed LPS challenge measured after 6 hrs hematoxylin and eosin staining based microscopy. Type of assay: functional, organism-based.
Assay [10] relates to Mus musculus. Description: Anti-inflammatory activity in po dosed LPS-induced C57BL/6 mouse acute lung injury model assessed as reduction in total protein concentration in bronchoalveolar lavage fluid pretreated for 7 days followed by LPS challenge measured after 6 hrs. In kind it is functional, organism-based.
The test system of assay [11] is Peritoneal macrophage. The assay can be described thus: Anti-inflammatory activity in C57BL/6 mouse primary peritoneal macrophages assessed as inhibition of LPS-induced IL-6 production by ELISA method. Type of assay: functional, cell-based.
Assay [12] deals with NT-3 growth factor receptor (Homo sapiens) (UniProt Q16288). Description: Binding affinity to human DNA-tagged TrkC measured after 1 hr by quantitative PCR analysis.
NT-3 growth factor receptor (Homo sapiens), sequence (Q16288 32-839 limits assumed): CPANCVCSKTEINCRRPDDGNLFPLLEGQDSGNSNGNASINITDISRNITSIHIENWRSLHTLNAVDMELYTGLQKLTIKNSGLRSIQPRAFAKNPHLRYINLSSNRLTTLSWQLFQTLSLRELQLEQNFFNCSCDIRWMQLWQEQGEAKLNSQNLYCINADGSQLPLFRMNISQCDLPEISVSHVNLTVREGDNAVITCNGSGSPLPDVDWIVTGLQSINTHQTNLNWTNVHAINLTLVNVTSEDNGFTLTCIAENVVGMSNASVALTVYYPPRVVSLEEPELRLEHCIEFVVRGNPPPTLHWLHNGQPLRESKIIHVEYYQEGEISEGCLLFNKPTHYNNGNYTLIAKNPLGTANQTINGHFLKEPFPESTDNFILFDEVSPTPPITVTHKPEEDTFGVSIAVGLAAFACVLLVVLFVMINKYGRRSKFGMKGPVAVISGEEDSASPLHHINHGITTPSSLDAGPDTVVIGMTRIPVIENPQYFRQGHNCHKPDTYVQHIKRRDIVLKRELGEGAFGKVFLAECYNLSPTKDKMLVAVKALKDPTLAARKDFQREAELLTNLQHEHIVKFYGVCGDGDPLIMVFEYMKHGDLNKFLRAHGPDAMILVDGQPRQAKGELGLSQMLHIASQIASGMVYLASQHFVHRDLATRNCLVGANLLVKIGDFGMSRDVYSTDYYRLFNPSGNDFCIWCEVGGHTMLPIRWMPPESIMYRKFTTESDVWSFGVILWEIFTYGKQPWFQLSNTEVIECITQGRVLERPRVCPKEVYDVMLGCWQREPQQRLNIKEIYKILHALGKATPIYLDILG
Assay [13] relates to Mus musculus. Description: Anti-inflammatory activity in po dosed LPS-induced C57BL/6 mouse acute lung injury model assessed as reduction in total number of cells in bronchoalveolar lavage fluid pretreated for 7 days followed by LPS challenge measured after 6 hrs by cell counter. Type of assay: functional, organism-based.
Assay [14] deals with BDNF/NT-3 growth factors receptor (Homo sapiens) (UniProt Q16620). Description: Binding affinity to human DNA-tagged TrkB measured after 1 hr by quantitative PCR analysis.

Molecules are shown by their SMILES. Activity calls are given as the source filed them. No cut-off for these calls is given here.

`CC1CN(c2cncnc2)Cc2cc(C(=O)Nc3cc(CCN4CCN(C)CC4)cc(C(F)(F)F)c3)ccc21` (racemic): the IC50 – broadly, the concentration needed to halve the response being measured – in [1] was 1.5 µM; in [2] it was over 10 µM; in [3] it was 0.0807 µM; in assay [4] it was over 10 µM.

Take `CCN1CCN(Cc2cc(NC(=O)c3ccc4c(c3)CN(c3cncnc3)CC4C)cc(C(F)(F)F)c2)CC1` (stereo unspecified): the IC50 was 0.944 µM in assay [1], over 10 µM in assay [2], 0.0711 µM in assay [3] and over 10 µM in assay [4].

Consider `CC1CN(c2cncnc2)Cc2cc(C(=O)Nc3ccc(CN4CCN(C)CC4)c(C(F)(F)F)c3)ccc21` (racemic), for which the figures for the IC50 in assay [1], in assay [2] and in assay [4] were 0.354 µM, 0.547 µM and over 10 µM, respectively.

As for `CC1CN(c2cncnc2)Cc2cc(C(=O)Nc3cc(CN4CCN(C)CC4)cc(-c4ccccc4)c3)ccc21` (racemic), the IC50 is 10 µM in [2] and over 10 µM in assay [4].

For `CC1CN(c2cncnc2)Cc2cc(C(=O)Nc3cc(CN4CCCN(C)CC4)cc(C(F)(F)F)c3)ccc21` (racemic), the half-inhibitory concentration (IC50) in assay [2] and in assay [4] was over 10 µM in each case.

Turning to `C[C@H]1CN(c2cncnc2)Cc2cc(C(=O)Nc3cc(CN4CCN(C)CC4)cc(C(F)(F)F)c3)ccc21`, the half-inhibitory concentration (IC50) in assay [4] is over 10 µM.

In the case of `CN1CCN(Cc2cc(NC(=O)c3ccc4c(c3)CN(c3ccncn3)CC4)cc(C(F)(F)F)c2)CC1`, the concentration for half-maximal inhibition (IC50) in assay [1], in assay [2], in [3] and in assay [4] was over 10 µM throughout.

Regarding `CC1CN(c2cncnc2)Cc2cc(C(=O)Nc3cc(CN4CCCC4)cc(C(F)(F)F)c3)ccc21` (racemic), the IC50 in assay [1] was 2.6 µM; in assay [2] it was over 10 µM; in assay [4], over 10 µM.

For the molecule `CC1CN(c2cncnc2)Cc2cc(NC(=O)Nc3cc(CN4CCN(C)CC4)cc(C(F)(F)F)c3)ccc21` (racemic), the IC50 in assay [1], in [2], in assay [3] and in assay [4] was over 10 µM in each case.

With `CC1CN(c2cncnc2)Cc2cc(C(=O)Nc3cc(CN4CCN(C)CC4)cc(C(F)(F)F)c3)ccc21` (racemic), the half-maximal inhibitory concentration (IC50) in assay [4] is over 10 µM.

Turning to `CN1CCN(Cc2cc(NC(=O)c3ccc4c(c3)CN(Cc3cncnc3)CC4)cc(C(F)(F)F)c2)CC1`, the IC50 in assay [1], in [2], in assay [3] and in [4] was over 10 µM throughout.

For `CCc1ccc(C(=O)Nc2cc(CN3CCN(C)CC3)cc(C(F)(F)F)c2)cc1C#Cc1ccc2ccnn2c1`, the IC50 in [1] stood at 0.203 µM; in [2], 0.414 µM; in [3], 0.0131 µM; in assay [4], 2.5 µM.

On to `C[C@@H]1CN(c2cncnc2)Cc2cc(C(=O)Nc3cc(CN4CCCN(C)CC4)cc(C(F)(F)F)c3)ccc21`, for which the IC50 was 2.6 µM in assay [1], over 10 µM in [2], 0.167 µM in assay [3] and over 10 µM in assay [4].

Consider `CC1CN(c2cncnc2)Cc2cc(C(=O)Nc3cc(N4CCN(C)CC4)cc(C(F)(F)F)c3)ccc21` (racemic), for which the 50% inhibitory concentration (IC50) in [1] was 2.1 µM; in assay [2], over 10 µM; in [4] it was over 10 µM.

As to `CC1Cc2ccc(C(=O)Nc3cc(CN4CCN(C)CC4)cc(C(F)(F)F)c3)cc2CN1c1cncnc1` (racemic), the IC50 in [2] and in assay [4] was over 10 µM in each case.

Take `C[C@H]1CN(c2cncnc2)Cc2cc(C(=O)Nc3cc(CN4CCCN(C)CC4)cc(C(F)(F)F)c3)ccc21`: the inhibition (commonly the change of the read-out against control, counted positive when it falls) in assay [5] was 99.9%; in [6] it was “Dose-dependent effect”; in [11], “Dose-dependent effect”. Besides, the IC50 in assay [1] was 0.255 µM; in assay [2], 8.1 µM; in [3] it was 0.0066 µM; in assay [4], over 10 µM. For the same molecule, the dissociation constant Kd (as a rule, the free concentration of one partner at which half of the binding sites on the other are occupied at equilibrium, for simple one-to-one binding) in [7] turned out to be 0.0022 µM. Besides, the outcome in [8], in assay [9], in assay [12] and in [14] was Active. Moreover, the Activity result in assay [10] and in assay [13] was “Dose-dependent effect” throughout.

Consider `CC1CN(c2cncnc2)Cc2cc(C(=O)Nc3cc(CN4CCN(C)CC4)cc(C(C)(C)C)c3)ccc21` (racemic), for which the figures for the IC50 in assay [2] and in [4] were 4.3 µM and over 10 µM, respectively.

Regarding `CN1CCN(Cc2cc(NC(=O)c3ccc4c(c3)CN(c3cncnc3)CC4)cc(C(F)(F)F)c2)CC1`, the IC50 in [4] is over 10 µM.

As to `CC1CN(c2cncnc2)Cc2cc(C(=O)Nc3cc(CN4CCN(C5CCCCC5)CC4)cc(C(F)(F)F)c3)ccc21` (racemic), the IC50 was 0.846 µM in assay [1], over 10 µM in [2] and over 10 µM in assay [4].

Turning to `CC(C)c1cc(CN2CCN(C)CC2)cc(NC(=O)c2ccc3c(c2)CN(c2cncnc2)CC3C)c1` (racemic), the half-inhibitory concentration (IC50) in [1] was 0.682 µM; in [2], 8.7 µM; in [3], 0.0499 µM; in assay [4] it was over 10 µM.

For `CC1CN(c2cncnc2)Cc2cc(C(=O)Nc3cc(CN4CCCCC4)cc(C(F)(F)F)c3)ccc21` (racemic), the IC50 in [2] and in assay [4] was over 10 µM throughout.

Regarding `CC1CN(c2cncnc2)Cc2cc(C(=O)Nc3cc(CN4CCSCC4)cc(C(F)(F)F)c3)ccc21` (racemic), the half-maximal inhibitory concentration (IC50) in [2] and in assay [4] was over 10 µM throughout.

With `CC1CN(c2cncnc2)Cc2cc(C(=O)Nc3cc(CN4CCN(C)CC4)cc(C4CC4)c3)ccc21` (racemic), the values for the IC50 in [2] and in assay [4] were 9.9 µM and over 10 µM, respectively.

With `CC1CN(c2cncnc2)Cc2cc(C(=O)Nc3cc(CN4CCN(C)CC4)cc(C4CCCCC4)c3)ccc21` (racemic), the IC50 in [2] was over 10 µM; in [3], 0.123 µM; in [4] it was over 10 µM.

Regarding `CC1CN(c2cncnc2)Cc2cc(C(=O)Nc3cccc(C(F)(F)F)c3)ccc21` (racemic), the concentration for half-maximal inhibition (IC50) in assay [2] and in assay [4] was over 10 µM in each case.

Turning to `CC1CN(c2cncnc2)Cc2cc(C(=O)Nc3cc(CN4CCOCC4)cc(C(F)(F)F)c3)ccc21` (stereo unspecified), the IC50 in [2] and in [4] was over 10 µM throughout.

In the case of `CC1CN(c2cncnc2)Cc2cc(C(=O)Nc3cccc(CN4CCN(C)CC4)c3)ccc21` (racemic), the IC50 in [1], in assay [2], in [3] and in assay [4] was over 10 µM throughout.

Turning to `CC1CN(c2cncnc2)Cc2cc(C(=O)Nc3cc(C(F)(F)F)ccc3CN3CCN(C)CC3)ccc21` (stereo unspecified), the IC50 was over 10 µM in assay [1], over 10 µM in assay [2], 10 µM in [3] and over 10 µM in assay [4].

With `CCc1cc(CN2CCN(C)CC2)cc(NC(=O)c2ccc3c(c2)CN(c2cncnc2)CC3C)c1` (racemic), the IC50 in assay [2] and in [4] was over 10 µM each time.

As to `CC1CN(c2cncnc2)Cc2cc(C(=O)Nc3cc(CN(C)C)cc(C(F)(F)F)c3)ccc21` (racemic), the IC50 in [2] and in [4] was over 10 µM in each case.

`CN1CCN(Cc2cc(NC(=O)c3ccc4c(c3)CN(c3cncnc3)CC4(C)C)cc(C(F)(F)F)c2)CC1`: the IC50 in assay [2] and in assay [4] was over 10 µM throughout.
